Test results published in PMC5889558, “The inhibition of human lung fibroblast proliferation and differentiation by Gs-coupled receptors is not predicted by the magnitude of cAMP response” (Respiratory Research, 2018).

Columns and labels:
Format in all cases: cell-based
[1] = system: human lung fibroblasts (HLF); assay: cAMP accumulation in HLF (HitHunter or AlphaScreen); details: HLF; for cAMP pEC50 / cAMP Emax (% max) / EC50 / Emax: 2 h, mean ± SEM, NC = not calculated due to incomplete curve; for cAMP pEC50 / EC50: room temperature, 5 μM rolipram (excluded for PDE inhibitors), at least 3 experiments; for cAMP Emax (% max) / Emax: percentage of the maximal forskolin response; for EC50 / Emax: Homo sapiens, Fibroblast; for EC50: read-out: cAMP pEC50 (converted); for Emax: read-out: cAMP Emax (% max)
Experimental: HLF were grown to confluency in 96-well white ViewPlates, before incubation with a range of agonist concentrations, or vehicle, for 2 h at room temperature in HBSS with 5 mM HEPES, 0.1% w/v HSA, and 5 μM rolipram. […] Rolipram was excluded when measuring cAMP levels in response to PDE inhibitors. cAMP levels were measured using either HitHunter cAMP assay or AlphaScreen competition assay following manufacturer protocol, and were assessed on either a BMG LABTEK ClarioStar or a Packard EnVision plate reader. cAMP concentrations in each well were determined using a standard curve. To account for the inter-assay variation in levels of cAMP produced in each experiment, data were normalized to the maximal forskolin response.

[2] = system: human lung fibroblasts (HLF); assay: Cell viability assay, caspase-3/7 as marker of apoptosis; details: 24 h
Experimental: Cell viability was measured using caspase-3/7 expression as a marker of apoptosis after treatment for 24 h with test compounds. HLF were seeded overnight at 6,000 cells/well in 96-well black ViewPlates, before being starved for 24 hours in culture medium devoid of FBS. Cells were incubated for 24 hours in the presence of test compounds at the top concentrations used in the proliferation assays, or in the presence of 100 nM staurosporine to induce apoptosis.
The presence of the apoptotic marker caspase-3/7 was detected by incubating cells with 8 μM CellEvent™ Caspase-3/7 Red Detection Reagent in dPBS with 5 % FBS, for 30 minutes at 37°C. […] Images were analyzed using a multi wavelength cell scoring algorithm within the MetaXpress 5.3 software, which measures cell number using stained nuclei, and percent of these cells positive for caspase-3/7 from Cy5 readouts. To account for the inter-assay variation in levels of caspase 3/7 detected in each experiment, data were normalized to the staurosporine response.
Statistical significance across treatment groups was determined by using the one-way ANOVA with Dunnett’s multiple-comparison post hoc test.

[3] = system: human lung fibroblasts (HLF); assay: HLF proliferation by BrdU incorporation (DELFIA), driven by FBS or PDGF; details: 24 h; for inhibition of FBS- and PDGF-driven proliferation (in words): either stimulus; for maximal level of inhibition of PDGF-driven proliferation: near maximal PDGF; for Proliferation vs PDGF Emax (% max) / Proliferation vs PDGF pEC50 / Proliferation vs serum pEC50 / Proliferation vs serum Emax (% max) / Emax / EC50: inhibition of BrdU incorporation, NC = not calculated due to incomplete curve; for Proliferation vs PDGF pEC50 / Proliferation vs serum pEC50 / EC50: mean ± SEM; for Emax / EC50: Homo sapiens, Fibroblast
Experimental: Proliferation of HLF was measured by incorporation of bromodeoxyuridine (BrdU). HLF were seeded overnight at 4000 cells/well in 96-well black ViewPlates, before being starved for 24 h in culture medium devoid of FBS. Proliferation was measured after incubation with a range of concentrations of FBS or PDGF, in DMEM supplemented with 0.1% w/v HSA, for 24 h.
For anti-remodelling assays using BrdU incorporation, cells were incubated for 24 h with a range of concentrations of test compounds in the presence of near maximal concentrations of FBS or PDGF in DMEM supplemented with 0.1% w/v HSA. Proliferation was assessed using the DELFIA BrdU incorporation assay kit following manufacturer protocol. Fluorescence was measured using a Packard EnVision plate reader. To account for the inter-assay variation in levels of proliferation in each experiment, data were normalized to the PDGF or FBS response.

[4] = system: human lung fibroblasts (HLF); assay: Fibroblast to myofibroblast transdifferentiation (FMT), αSMA immunofluorescence, TGFβ-driven; details: 48 h, TGFβ 0.3 ng/mL
Experimental: To assess the differentiation of fibroblasts to the myofibroblast phenotype, immunofluorescence was used to monitor increases in α smooth muscle actin (αSMA). HLF were seeded overnight at 1000 cells/well in 384-well black clear bottom plates, before being starved for 24 h growth medium devoid of FBS.
For anti-remodelling assays using FMT, cells were incubated for 48 h with a range of concentrations of test compounds and incubated for 48 h, at 37°C, 5% CO2 in the presence of a near maximal concentration of TGFβ (0.3 ng/mL), to promote differentiation in DMEM supplemented with 0.1% w/v HSA. Following stimulation, cells were fixed in 4% paraformaldehyde, washed 3× in PBS (with Ca^2+/Mg^2+), and incubated with permeabilising blocking buffer (dPBS (with Ca^2+/Mg^2+), 10% FBS (v/v), 0.1% Triton X-100 (v/v)) for 1 h at 37°C. Wells were then washed 3× in wash buffer (Tris Buffered Saline (TBS), 0.05% (v/v) Tween-20) and incubated with mouse anti-α SMA (1:1000 dilution in permeabilising blocking buffer) for 1 h at room temperature, with gentle shaking. Following 3× wash in wash buffer, wells were incubated with blocking buffer containing Hoechst to stain for nuclear DNA (2 μM), and FITC-conjugated Affini-pure goat […] IgG (1:1000 dilution in blocking buffer) for 30 min at 37°C. Fluorescence was then quantified on a widefield ImageXpress Micro microscope, with a Plan Fluor 20X objective, DAPI filter cube (excitation 400–418 nm, emission 435–470 nm), 50 ms exposure time for nuclei, and FITC filter cube (excitation 467–498 nm, emission 513–556 nm), 200 ms exposure time for αSMA.
To quantify increases in αSMA fluorescence, a standard Multi-Wavelength Cell Scoring algorithm was used in MetaXpress 5.3 software (Molecular Devices, California, USA). To account for the inter-assay variation in levels of αSMA expression produced in each experiment, data were normalized to the response to TGFβ.

[5] = system: human lung fibroblasts (HLF); assay: HLF proliferation by nuclei count
Experimental: Proliferation of HLF was measured by nuclei count. Human lung fibroblasts (HLF) were seeded overnight at 4,000 cells/well in 96-well black ViewPlates, before being starved for 24 h in culture medium devoid of FBS. Proliferation was measured after incubation with a range of concentrations of FBS or PDGF, in DMEM supplemented with 0.1 % w/v HSA, for 24, 48, 72, or 96 h for nuclei count assay.
For anti-remodelling assays, cells were incubated for 48 h with a range of concentrations of test compounds in the presence of an EC80 concentration of FBS (1.8 % v/v). Following stimulation, cells were fixed with 4 % PFA and nuclei stained with Hoechst 33342 (1 μM) for 15 minutes at room temperature. Cells were then washed three times with dPBS before the plate was read using the widefield ImageXpress Micro microscope, with a Plan Fluor 4X objective, DAPI filter cube (excitation 400-418nm, emission 435-470nm), and 50 ms exposure time. Images were analysed using a nuclear count algorithm within the MetaXpress 5.3 software (Molecular Devices, California, USA). To account for the inter-assay variation in levels of proliferation in each experiment, data were normalized to the EC80 FBS response.

[6] = HLF, 1:10 dilution of top conc 30 μM
[7] = EC80 PDGF, percentage of maximal proliferation observed with PDGF
[8] = EC80 serum, percentage of maximal proliferation observed with serum
[9] = EC80 PDGF, percentage of maximal proliferation observed with PDGF, read-out: Proliferation vs PDGF Emax (% max)
[10] = EC80 concentration of PDGF, read-out: Proliferation vs PDGF pEC50 (converted)

N#Cc1c(N)nc(SCC(N)=O)c(C#N)c1-c1ccc(OCC2CC2)cc1 [BAY60–6583]
cAMP pEC50 [1]: 6.57 ± 0.06 | cAMP Emax (% max) [1]: 10.2 ± 2.89 % max | % cells positive for caspase-3/7, 1:10 dilution [2, 6]: 1.04 ± 0.38% | % cells positive for caspase-3/7, Top conc ([2]; HLF, top conc 30 μM): 0.62 ± 0.14% | inhibition of FBS- and PDGF-driven proliferation (in words) ([3]; BrdU): fully inhibit both FBS- and PDGF-driven proliferation | maximal level of inhibition of serum-driven proliferation ([3]; BrdU, near maximal FBS): 100% | maximal level of inhibition of PDGF-driven proliferation ([3]; BrdU): 100% | Proliferation vs PDGF Emax (% max) [3, 7]: 100 ± 0.01 % max | Proliferation vs PDGF pEC50 ([3]; EC80 concentration of PDGF): 5.30 ± 0.12 | Proliferation vs serum pEC50 ([3]; EC80 concentration of serum): 5.30 ± 0.16 | Proliferation vs serum Emax (% max) [3, 8]: 100 ± 0.01 % max | inhibition of TGFβ-driven FMT (in words) [4]: completely inhibit FMT

NCCc1ccc(O)c(O)c1 [Dopamine]
EC50 [1]: 4070 nM | Emax [1]: 41.2 ± 10% | % cells positive for caspase-3/7, 1:10 dilution ([2]; human, 3 μM): 1.21 ± 0.34% | % cells positive for caspase-3/7, Top conc ([2]; human, 30 μM): 0.83 ± 0.14% | Emax [3, 9]: 73.5 ± 13.5% | EC50 [3, 10]: 16600 nM | inhibition of TGFβ-driven FMT (in words) [4]: full concentration-response curves could not be established

CCNC(=O)[C@H]1O[C@@H](n2cnc3c(N)ncnc32)[C@H](O)[C@@H]1O [NECA]
cAMP pEC50 [1]: 5.39 ± 0.13 | cAMP Emax (% max) [1]: 47.3 ± 3.40 % max | % cells positive for caspase-3/7, 1:10 dilution [2, 6]: 0.67 ± 0.09% | % cells positive for caspase-3/7, Top conc ([2]; HLF, top conc 30 μM): 1.04 ± 0.20% | maximal level of inhibition of PDGF-driven proliferation ([3]; BrdU): 38% | Proliferation vs PDGF Emax (% max) [3, 7]: 37.8 ± 14.7 % max | Proliferation vs PDGF pEC50 ([3]; EC80 concentration of PDGF): 6.94 ± 0.43 | inhibition of TGFβ-driven FMT (in words) [4]: full concentration-response curves could not be established

OCc1cc(C(O)CNCCCCCCOCCCCc2ccccc2)ccc1O (stereo not shown) [Salmeterol]
EC50 [1]: 0.123 nM | Emax [1]: 45.8 ± 3.53% | % cells positive for caspase-3/7, 1:10 dilution ([2]; human, 10 nM): 0.66 ± 0.24% | % cells positive for caspase-3/7, Top conc ([2]; human, 100 nM): 0.40 ± 0.12% | Emax [3, 9]: 89.2 ± 0.27% | EC50 [3, 10]: 0.0316 nM | EC50 ([3]; EC80 concentration of serum, read-out: Proliferation vs serum pEC50 (converted)): 0.263 nM | Emax ([3]; EC80 serum, percentage of maximal proliferation observed with serum, read-out: Proliferation vs serum Emax (% max)): 37.7 ± 7.33% | maximal level of inhibition of FMT [4]: 51 % of the TGFβ response

AGN-205204
cAMP pEC50 [1]: 6.62 ± 0.12 | cAMP Emax (% max) [1]: 49.7 ± 3.84 % max | % cells positive for caspase-3/7, 1:10 dilution ([2]; HLF, 1:10 dilution of top conc 10 μM): 0.56 ± 0.09% | % cells positive for caspase-3/7, Top conc ([2]; HLF, top conc 10 μM, mean ± SEM, n=3): 0.57 ± 0.09% | Proliferation vs PDGF Emax (% max) [3, 7]: 101 ± 3.71 % max | Proliferation vs PDGF pEC50 ([3]; EC80 concentration of PDGF): 7.45 ± 0.25 | Proliferation vs serum pEC50 ([3]; EC80 concentration of serum): 6.91 ± 0.48 | Proliferation vs serum Emax (% max) [3, 8]: 51.3 ± 8.89 % max | maximal level of inhibition of FMT [4]: 71 % of the TGFβ response

Alpha melanocortin stimulating hormone (Ac-SYSMEHFRWGKPV-NH2; ends and bridges not checked; UniProt P01189 138-150, looked up) [α-MSH, MC1, MC3, MC4, MC5 agonist]
cAMP response (in words) ([1]; acute cAMP accumulation): no detectable cAMP response | inhibition of FBS- and PDGF-driven proliferation (in words) ([3]; BrdU): incapable of inhibiting the proliferation mediated by either stimulus | inhibition of TGFβ-driven FMT (in words) [4]: full concentration-response curves could not be established

Platelet-derived growth factor [PDGF]
EC50 for stimulation of proliferation (nuclei count) ([5]; 72 h treatment): 3.77 ± 0.13 ng/mL | EC50 for stimulation of proliferation (nuclei count) ([5]; 96 h treatment): 7.26 ± 3.23 ng/mL | maximal proliferation (nuclei count) ([5]; 96 h treatment): 29.2 ± 15.2 % of the maximal serum response | maximal proliferation (BrdU incorporation) ([3]; normalized to maximal proliferation observed with 10% serum): 41.0 ± 8.62%
